Patent US20020165130A1, “Method of sensitizing microbial cells to antimicrobial compounds” (priority 1998, published 2002)
Where two headings read alike, the source gives them in different places.

Tests used:
[1] = system: Staphylococcus aureus ATCC 6538; test: Antibiotic disc assay (zones of inhibition), S. aureus; type: cell-based; details: for zone size, ciprofloxacin 5 μg disc: terpenoid at 0.5 mM in agar overlay
Experimental: (§1) Erwinia sp. #351 was from Presque Isle Cultures, Presque Isle, Pa. Lactobacillus fermentum ATCC 14931, zygosaccharomyces bailii ATCC 60483 and E. coli ATCC 25922 (National Committee on Clinical Laboratory Standards antibiotic test strain) were from the American Type Culture Collection, Manassas, Va. Staphylococcus aureus ATCC 6538 and Enterococcus faecalis Bact. 4025 were obtained from the UW-Madison Department of Bacteriology culture collection. All bacteria except for L. fermentum were grown statically in screwcap tubes containing 10 ml Trypticase Soy Broth (BBL, Cockeysville, Md.) for 20-22 hours at 30° C. L. fermentum was grown statically in screwcap tubes containing 10 ml MRS broth (Difco) for 20-22 hours at 30° C. Cultures of Z. bailii were grown in 125 ml culture flasks containing 50 ml YM broth (Difco) on a rotary shaker set at 200 rpm for 20-22 hours at 25° C.
(§2) The activity of terpenoid compounds toward facilitating susceptibility to antibiotics was assessed using an antibiotic disc assay. For this assay, cells from an overnight growth were suspended to a known concentration in 0.5 ml 67 mM phosphate buffer, pH 7.0 and mixed with 4.5 ml 0.7% Iso-Sensitest agar (Oxoid, Basingstoke, Hampshire, England) overlay tempered to 50° C. Terpenoid compounds dissolved in absolute ethanol were added to the cell/agar overlay mixture yielding final concentrations of 0.5, 1.0 or 2.0 mM, depending on the experiment. The final concentration of ethanol in cell overlays was 0.5% and the final concentration of target cells was ca. 10^6 cfu/ml. After thorough vortexing, terpenoid-containing cell overlays were poured over hardened Iso-Sensitest agar (2% agar) plates and allowed to set. […] After incubation, zones of inhibition were measured with a ruler from the bottom of the plates.

[2] = system: Enterococcus faecalis Bact. 4025; type: cell-based; details: E. faecalis
Experimental: as §1, §2

[3] = antibiotic disc with 1 mM apritone (A) in agar overlay
[4] = antibiotic disc with 1 mM bisabolol (B) in agar overlay
[5] = antibiotic disc with 1 mM nerolidol (N) in agar overlay
[6] = antibiotic disc, control (no sesquiterpenoid)
[7] = antibiotic disc with 0.5 mM apritone (A) in agar overlay
[8] = antibiotic disc with 0.5 mM bisabolol (B) in agar overlay
[9] = antibiotic disc with 0.5 mM nerolidol (N) in agar overlay
[10] = antibiotic disc with 2 mM apritone (A) in agar overlay
[11] = antibiotic disc with 2 mM bisabolol (B) in agar overlay
[12] = antibiotic disc with 2 mM nerolidol (N) in agar overlay
[13] = antibiotic disc, control (no sesquiterpenoid in agar overlay)

C=C1C2CCC(C2)C1(C)C (stereo not shown) [camphene]
zone size, ciprofloxacin 5 μg disc [1]: 22 mm

CC12CCC(CC1)C(C)(C)O2 [cineole]
zone size, ciprofloxacin 5 μg disc [1]: 23 mm

CC(C)=CCCC(C)=CC=O [citral]
zone size, ciprofloxacin 5 μg disc [1]: 22 mm

CC(C)=CCCC(C)CC=O (stereo not shown) [citronellal]
zone size, ciprofloxacin 5 μg disc [1]: 22 mm

CC(C)=CCCC(C)CCO (stereo not shown) [citronellol]
zone size, ciprofloxacin 5 μg disc [1]: 22.5 mm

CCC[C@@H]1C[C@@H](C(=O)N[C@@H]([C@H]2O[C@H](SC)[C@H](O)[C@@H](O)[C@H]2O)[C@H](C)Cl)N(C)C1 [clindamycin]
Diameters of zones of inhibition [2, 3]: 12 millimeters | Diameters of zones of inhibition [2, 4]: 11 millimeters | Diameters of zones of inhibition [2, 5]: 11 millimeters | Diameters of zones of inhibition [2, 6]: 12 millimeters | Diameters of zones of inhibition [1, 7]: 22 millimeters | Diameters of zones of inhibition [1, 8]: 24.5 millimeters | Diameters of zones of inhibition [1, 9]: 23.5 millimeters | Diameters of zones of inhibition [1, 3]: 25 millimeters | Diameters of zones of inhibition [1, 4]: 27 millimeters | Diameters of zones of inhibition [1, 5]: 31.5 millimeters | Diameters of zones of inhibition [1, 10]: 27.5 millimeters | Diameters of zones of inhibition [1, 11]: 32 millimeters | Diameters of zones of inhibition [1, 12]: 35.5 millimeters | Diameters of zones of inhibition [1, 13]: 22 millimeters

CC[C@H]1OC(=O)[C@H](C)[C@@H](O[C@H]2C[C@@](C)(OC)[C@@H](O)[C@H](C)O2)[C@H](C)[C@@H](O[C@@H]2O[C@H](C)C[C@H](N(C)C)[C@H]2O)[C@](C)(O)C[C@@H](C)C(=O)[C@H](C)[C@@H](O)[C@]1(C)O [erythromycin]
Diameters of zones of inhibition [2, 3]: 18 millimeters | Diameters of zones of inhibition [2, 4]: 19 millimeters | Diameters of zones of inhibition [2, 5]: 19.5 millimeters | Diameters of zones of inhibition [2, 6]: 18.5 millimeters | Diameters of zones of inhibition [1, 7]: 26 millimeters | Diameters of zones of inhibition [1, 8]: 26 millimeters | Diameters of zones of inhibition [1, 9]: 27 millimeters | Diameters of zones of inhibition [1, 3]: 25 millimeters | Diameters of zones of inhibition [1, 4]: 29 millimeters | Diameters of zones of inhibition [1, 5]: 29.5 millimeters | Diameters of zones of inhibition [1, 10]: 26.5 millimeters | Diameters of zones of inhibition [1, 11]: 30 millimeters | Diameters of zones of inhibition [1, 12]: 33 millimeters | Diameters of zones of inhibition [1, 13]: 24 millimeters

CC(C)=CCC/C(C)=C/CO [geraniol]
zone size, ciprofloxacin 5 μg disc [1]: 23 mm

C=C(C)[C@H]1CC=C(C)CC1 [limonene]
zone size, ciprofloxacin 5 μg disc [1]: 22 mm

C=CC(C)(O)CCC=C(C)C (stereo not shown) [linalool]
zone size, ciprofloxacin 5 μg disc [1]: 22.5 mm

CC(C)[C@@H]1CC[C@@H](C)CC1=O [menthone]
zone size, ciprofloxacin 5 μg disc [1]: 23 mm

C=CC(=C)CCC=C(C)C [myrcene]
zone size, ciprofloxacin 5 μg disc [1]: 21.5 mm

CC(C)=CCC/C(C)=C\CO [nerol]
zone size, ciprofloxacin 5 μg disc [1]: 22 mm

CN(C)[C@@H]1C(O)=C(C(N)=O)C(=O)[C@@]2(O)C(O)=C3C(=O)c4c(O)cccc4[C@@](C)(O)[C@H]3C[C@@H]12 [tetracycline]
Diameters of zones of inhibition [2, 3]: 22.5 millimeters | Diameters of zones of inhibition [2, 4]: 24 millimeters | Diameters of zones of inhibition [2, 5]: 23.5 millimeters | Diameters of zones of inhibition [2, 6]: 22 millimeters | Diameters of zones of inhibition [1, 7]: 25.5 millimeters | Diameters of zones of inhibition [1, 8]: 25 millimeters | Diameters of zones of inhibition [1, 9]: 25.5 millimeters | Diameters of zones of inhibition [1, 3]: 26 millimeters | Diameters of zones of inhibition [1, 4]: 26 millimeters | Diameters of zones of inhibition [1, 5]: 26.5 millimeters | Diameters of zones of inhibition [1, 10]: 27.5 millimeters | Diameters of zones of inhibition [1, 11]: 30 millimeters | Diameters of zones of inhibition [1, 12]: 32.5 millimeters | Diameters of zones of inhibition [1, 13]: 21.5 millimeters

CC(C)CCCC(C)CCO (stereo not shown) [tetrahydrogeraniol]
zone size, ciprofloxacin 5 μg disc [1]: 22.5 mm

CCC(C)(O)CCCC(C)C (stereo not shown) [tetrahydrolinalool]
zone size, ciprofloxacin 5 μg disc [1]: 23 mm

CN[C@H](CC(C)C)C(=O)N[C@H]1C(=O)N[C@@H](CC(N)=O)C(=O)N[C@H]2C(=O)N[C@H]3C(=O)N[C@H](C(=O)N[C@H](C(=O)O)c4cc(O)cc(O)c4-c4cc3ccc4O)[C@H](O)c3ccc(c(Cl)c3)Oc3cc2cc(c3O[C@@H]2O[C@H](CO)[C@@H](O)[C@H](O)[C@H]2O[C@H]2C[C@](C)(N)[C@H](O)[C@H](C)O2)Oc2ccc(cc2Cl)[C@H]1O [vancomycin]
Diameters of zones of inhibition [2, 3]: 17 millimeters | Diameters of zones of inhibition [2, 4]: 18 millimeters | Diameters of zones of inhibition [2, 5]: 18 millimeters | Diameters of zones of inhibition [2, 6]: 17 millimeters | Diameters of zones of inhibition [1, 7]: 19 millimeters | Diameters of zones of inhibition [1, 8]: 20 millimeters | Diameters of zones of inhibition [1, 9]: 20 millimeters | Diameters of zones of inhibition [1, 3]: 18 millimeters | Diameters of zones of inhibition [1, 4]: 19 millimeters | Diameters of zones of inhibition [1, 5]: 23.5 millimeters | Diameters of zones of inhibition [1, 10]: 20 millimeters | Diameters of zones of inhibition [1, 11]: 21 millimeters | Diameters of zones of inhibition [1, 12]: 25 millimeters | Diameters of zones of inhibition [1, 13]: 18 millimeters

CC1=CC=C(C(C)C)CC1 [α-terpinene]
zone size, ciprofloxacin 5 μg disc [1]: 22 mm

gentamicin
Diameters of zones of inhibition [2, 3]: 11 millimeters | Diameters of zones of inhibition [2, 5]: 17.5 millimeters | Diameters of zones of inhibition [2, 6]: 9 millimeters | Diameters of zones of inhibition [1, 7]: 20 millimeters | Diameters of zones of inhibition [1, 8]: 22 millimeters | Diameters of zones of inhibition [1, 9]: 24 millimeters | Diameters of zones of inhibition [1, 3]: 21 millimeters | Diameters of zones of inhibition [1, 5]: 26 millimeters | Diameters of zones of inhibition [1, 10]: 23 millimeters | Diameters of zones of inhibition [1, 11]: 29 millimeters | Diameters of zones of inhibition [1, 12]: 35 millimeters | Diameters of zones of inhibition [1, 13]: 18.5 millimeters
